Data taken from patent publication US20230310352A1, “NOVEL COMPOSITIONS AND METHODS FOR THE TREATMENT OF LUNG FIBROSIS” (LAURENT PHARMACEUTICALS INC., priority 2020, published 2023).
“Also recorded” adds a separate entry of the source.

Tests used:
human lung microtissues = assay: Immunostaining of fibrotic markers (α-SMA, pro-collagen type 1) in TGF-β1 fibrosis-induced 3D lung microtissues; type: cell-based
Text: To confirm the findings of the NHLF cells, the effects of fenretinide administration was observed on a newly developed in vitro model arrays of 3D microtissues that are suspended over multiple flexible micropillars. Progression of lung fibrosis is characterized by stiffening of the membranous tissue that makes up the alveolar air sacs, caused by the accumulation of highly contractile and collagen-producing myofibroblasts. To model the physio-pathological characteristics of lung fibrosis in vitro, different experimental systems have been developed. Planar 2D culture-based assays offer multiparameter readout of fibrotic cellular markers, but they have very limited capacity to measure or reproduce tissue mechanics. In order to recapitulate dynamic changes in tissue mechanics during fibrogenesis, a newly validated membranous human lung microtissues array was used, that models key biomechanical events occurred during lung fibrogenesis, including progressive stiffening and contraction of alveolar tissue, decline in alveolar tissue compliance, and traction force-induced bronchial dilation. This new 3D array of membranous lung microtissues model of lung fibrosis had been validated using two FDA-approved antifibrosis drugs, pirfenidone and nintedanib. This model was further extended to larger lung tissue arrays, to mimic the traction on alveoli as a model of bronchiectasis. (Asmani M. et al, 2018, Nature Com, 9:2066)
The lung microtissue chip system used is based on bio-MEMS technology that can assemble 3D cell-populated submillimeter microtissues in arrays of polydimethylsiloxane (PDMS) microwells. In each microwell, human lung fibroblasts or epithelial cells spontaneously contract and assemble the matrix proteins, such as collagen, into microtissues that anchor on top of an array of micropillars. The flexible micropillars serve as in situ force sensors that can report the contractile force generated by the tissue. […]
These observations are further described in Table 1, which presents fenretinide induced reduction of alpha smooth muscle actin (α-SMA) and pro-collagen expression and contractile forces induced by TGF-β1 in lung microtissue in preventative and therapeutic treatment measured as a percentage.

[1] = test system: bleomycin-induced lung fibrosis; assay: Intratracheal bleomycin mouse model of pulmonary fibrosis (21-day model); type: in vivo, C57BL/6N mice; conditions: Day 21, oral once daily for 14 days
Procedure: Oral administration of a solid amorphous dispersion formulation of fenretinide (LAU-7b SDI) was evaluated in treating and/or reducing pulmonary fibrosis in mouse model of lung fibrosis induced via a single intratracheal administration of bleomycin followed by vehicle, fenretinide (LAU-7b SDI) or pirfenidone oral treatment for 21 days. The LAU-7b SDI formulation was obtained by spray drying and contains fenretinide in amorphous form in a solid dispersion comprising a matrix polymer, based on the following formula: 40% fenretinide, 59.6% povidone (KOLLIDON® 30), 0.24% butylated hydroxyanisole (BHA) and 0.16% butylated hydroxytoluene (BHT).
Male C57BL/6N mice from Charles River Laboratories, 10-12 weeks of age, weighing around 20-25 g, at the time of their enrolment, received 50 μL of bleomycin sulfate (2.0 mg/kg) by a single intratracheal instillation on Day 1 of the study. The Sham group received an equivalent volume of 0.9% saline. On Day 7 post-bleomycin instillation the animals were randomized in groups of 8 animals based on their body weight loss and Penh value. Oral dosing by gavage (10 mL/kg) with the vehicle (sham and BLM Control groups), LAU-7b SDI (fenretinide at 5 mg/kg and 10 mg/kg dose), and the reference compound (pirfenidone 100 mg/kg) were initiated once daily starting from Day 7 to Day 21. Two hours following the last dose on Day 21 all the mice were sacrificed, the lungs of each mouse were harvested, flushed with 0.9% NaCl and inflated with 10% neutral buffered formalin solution. After embedding and mounting of the lung tissue (transversal slices of 5 μm thickness), the histology slides were stained with hematoxylin/eosin for the Ashcroft score evaluation by a treatment-blinded pathologist, and with Sirius red staining for automated fibrosis quantification (Biocellvia, France).
As in Example 4, the key endpoints evaluated in this study were the Ashcroft score, pulmonary foci and collagen content obtained by histological assessment of the lung tissue at the end of the study. Statistical analysis was made on normally distributed data by one-way ANOVA followed by multiple comparisons (Fisher's LSD post hoc test) to assess the difference between the groups, using Graph Pad Prism Software version 8.0 (San Diego, CA, USA). Differences were considered statistically significant when P values were p<0.05 (*), or p<0.01 (**) or p<0.001 (***). The Ashcroft score was assessed in the lung tissue by treatment-blinded pathologist on the H&E stained histology slides (2 cross sections/animal) and using the modified Ashcroft scale. Briefly, each lung section was scanned at a magnification of ×100 (H&E staining), and graded from 0 (normal lung) to 8 (total fibrotic obliteration of the field). The mean value of the grades obtained for each of the two sections was used as the Ashcroft score.
Pulmonary foci (fibrotic tissue) and lung collagen content were quantified in the Sirius red stained lung tissue histology sections by high resolution, automated digital image analysis (Biocellvia, France) on Day 21 after lung fibrosis induction by bleomycin (BLM) instillation and following a 14-day oral gavage treatment with LAU-7b SDI (fenretinide, two doses), pirfenidone (reference drug) or vehicle only. Full field analysis of 2 lung sections per animal was conducted and the results were expressed as a mean percentage of total surface. This test is considered highly reliable, offering reproducible and observer-independent assessment of quantitative analysis of fibrosis.

[2] = test system: Normal human lung fibroblast cells (NHLF cells, ATCC CRL-7000); assay: α-SMA protein by ELISA after TGF-β1 exposure in NHLF; type: cell-based; conditions: TGF-β1 2 ng/mL + fenretinide 1, 2, 3, 4 μM, 3 days
Procedure: NHLF cells were incubated for 3 days at 37° C. and treated with TGF-β1 (2 ng/mL) or TGF-β1 (2 ng/mL)+fenretinide (1, 2, 3, 4 μM). At the end of the 3 day-treatment period, media was collected in identified tubes, centrifuged at 2,000×g for 20 minutes and stored at −80° C. Cells were collected using trypsin, transferred in identified tubes and centrifuged at 1,000×g for 5 minutes. Cells were then washed twice in phosphate buffered saline (PBS) 1X prior to be resuspended in ELISA lysis buffer. α-SMA protein contents were determined using Abcam ELISA detection kit (Ab240678). The experiment was performed in quadruplicate.

[3] = preventative treatment, 2 μM, 6 days
[4] = preventative treatment, 4 μM, 6 days
[5] = preventative, co-administered with TGF-β1 5 ng/ml for 6 days, 2 μM and 4 μM
[6] = therapeutic treatment, added day 3 to day 6, 2 μM
[7] = therapeutic treatment, added day 3 to day 6, 4 μM
[8] = fenretinide 5 mg/kg (as LAU-7b SDI)
[9] = fenretinide 10 mg/kg (as LAU-7b SDI), pirfenidone 100 mg/kg

## CC1=C(/C=C/C(C)=C/C=C/C(C)=C/C(=O)Nc2ccc(O)cc2)C(C)(C)CCC1 [fenretinide, 4-hydroxyphenyl retinamide]
Human lung microtissues; [3]
  pro-collagen, reduction of expression induced by TGF-β1, percentage change: 88.0%
  α-SMA, reduction of expression induced by TGF-β1, percentage change: 45.0%
Human lung microtissues; [4]
  pro-collagen, reduction of expression induced by TGF-β1, percentage change: 81.0%
  α-SMA, reduction of expression induced by TGF-β1, percentage change: 37.0%
Human lung microtissues; [5]
  expression of pro-collagen type 1 (fluorescent intensity): increasingly inhibited by increasing fenretinide concentrations
  expression of α-SMA (fluorescent intensity): increasingly inhibited by increasing fenretinide concentrations
Human lung microtissues; [6]
  pro-collagen, reduction of expression induced by TGF-β1, percentage change: 39.0%
  α-SMA, reduction of expression induced by TGF-β1, percentage change: 56.0%
Human lung microtissues; [7]
  pro-collagen, reduction of expression induced by TGF-β1, percentage change: 58.0%
  α-SMA, reduction of expression induced by TGF-β1, percentage change: 72.0%
[1]; [8]
  Ashcroft score vs BLM control: also reduced
  percentage of collagen content, automated Sirius red analysis, vs BLM control: did not induce statistically significant reduction
  percentage of pulmonary foci, automated Sirius red analysis, vs BLM control: did not induce statistically significant reduction
[1]; [9]
  Ashcroft score vs BLM control: reduced significantly
  percentage of collagen content, automated Sirius red analysis, vs BLM control: reduced significantly (p<0.05)
  percentage of pulmonary foci, automated Sirius red analysis, vs BLM control: reduced significantly (p<0.05)
[2]
  induction of fibrotic marker α-SMA protein levels (ELISA): attenuate and, at certain doses, completely abolish; also recorded: attenuates in a dose-dependent manner; also recorded: dose-dependent attenuation
